Measured values as given in patent US20080096870A1, “Methods and Materials for Treating Mental Illness” (priority 2004, published 2008).

Experiments:
[1] = tested on: rat cerebrocortical cultured neurons; experiment: Elicited action potentials, current-clamp in cerebrocortical cultured neurons; type: cell-based; conditions: 100 μM; inward current pulses 2 ms, 2 nA; 5 of 5 neurons
Procedure: (§1) Neuronal Cultures. Cerebral cortices were dissected from newborn rats and treated with 0.25% trypsin to dissociate the cells. Dissociated cells were resuspended in Dulbecco's Modified Eagle's Medium (DMEM) containing 10% plasma derived horse serum (PDHS) and were plated in poly-L-lysine-coated, 35 mm Nunc plastic tissue culture dishes (3.0×10^6 cells/dish/2ml media). Cultures were maintained in an atmosphere of 5% CO2/95% air.
Electrophysiological recordings: Voltage- and current-clamp recordings of membrane ionic currents and potentials were conducted by using Axopatch 200B and Axoclamp 1B amplifiers (Axon Instruments, Foster City, Calif.). The perforated nystatin- and gramicidin-based patch-clamp recording techniques were used to reduce nonspecific rundown of intracellular processes. Neurons were used for electrophysiological recordings between 12 and 27 days in vitro. […] Patch microelectrodes were pulled from 1.5 mm borosilicate glass tubing using a two-stage vertical pipette puller (Narishige, East Meadow, N.Y.). […]
C: Examples of action potentials elicited by depolarizing the membrane with inward current pulses of 2 ms duration and 2 nA amplitude in control (before application of 3,5-DBr-L-Phe), in the presence of 3,5-DBr-L-Phe (100 μM) and after wash-out of the drug. Similar responses were recorded from 5 of 5 neurons.

AMPA/kainate receptor = experiment: AMPA/kainate receptor-mediated mEPSCs, patch-clamp recording in cerebrocortical cultured neurons; type: cell-based, rat; conditions: TTX-containing solution, −60 mV, MK-801 10 μM; concentration-dependent
Procedure: as §1
Electrophysiological recordings: Voltage- and current-clamp recordings of membrane ionic currents and potentials were conducted by using Axopatch 200B and Axoclamp 1B amplifiers (Axon Instruments, Foster City, Calif.). […]
(§2) The miniature EPSCs were recorded in TTX-containing (0.3-1 μM), Mg^2+-free (in case of NMDA receptor recording) extracellular solution at Vh=−60 mV. […]
The digitized data was analyzed off-line using the Mini-Analysis Program (Synaptosoft, Leonia, N.J.) or the pCLAMP9 (Axon Instruments) (Axon Instruments, Union City, Calif.). […]
FIG. 3. […] A: Representative traces of AMPA-kainate mEPSCs recorded from a cortical neuron under the following conditions: control; in the presence of 3,5-DBr-L-Phe (100 μM); after washout of 3,5-DBr-L-Phe. AMPA/kainate receptor-mediated currents were recorded in TTX-containing (0.3 μM) extracellular solution at holding membrane potential of −60 mV. […] Data is expressed as mean±SEM of 6-7 cells. […]

GABA receptor = experiment: GABA receptor-mediated mIPSCs in cerebrocortical cultured neurons; type: cell-based, rat; conditions: 100 μM; TTX-containing solution, −60 mV
Procedure: as §1
Electrophysiological recordings: Voltage- and current-clamp recordings of membrane ionic currents and potentials were conducted by using Axopatch 200B and Axoclamp 1B amplifiers (Axon Instruments, Foster City, Calif.). The perforated nystatin- and gramicidin-based patch-clamp recording techniques were used to reduce nonspecific rundown of intracellular processes. Neurons were used for electrophysiological recordings between 12 and 27 days in vitro. […]
as §2
FIG. 5. […] A: Representative GABA receptor-mediated mIPSCs recorded from the same neuron before (control), during (100 μM), and after (wash) application of 3,5-DBr-L-Phe. GABA receptor-mediated mIPSCs were recorded in TTX-containing (0.3 μM) extracellular solution at holding membrane potential of −60 mV. […] Summary data is expressed as mean±SEM of 5 cells.

glutamate release = experiment: Evoked paired EPSCs (2nd/1st amplitude ratio) in cerebrocortical cultured neuron; type: cell-based, rat; conditions: 100 μM, Mg2+ 1 mM, Vh −60 mV
Procedure: as §1
(§3) Electrophysiological recordings: Voltage- and current-clamp recordings of membrane ionic currents and potentials were conducted by using Axopatch 200B and Axoclamp 1B amplifiers (Axon Instruments, Foster City, Calif.). The perforated nystatin- and gramicidin-based patch-clamp recording techniques were used to reduce nonspecific rundown of intracellular processes. Neurons were used for electrophysiological recordings between 12 and 27 days in vitro. […] Patch microelectrodes were pulled from 1.5 mm borosilicate glass tubing using a two-stage vertical pipette puller (Narishige, East Meadow, N.Y.). […] For rapid application of agonist-containing solutions to neurons, the SF-77B system (Warner Instrument Corp., Hamden, Conn.) was used.
FIG. 4. […] A: Effect of 3,5-DBr-L-Phe on the evoked EPSCs in rat cerebrocortical cultured neuron. Examples of average EPSCs (20 traces average) in control conditions (open circle), in 3,5-DBr-L-Phe (filled circle). Synaptic responses were evoked by applying two sub-threshold electric stimuli (0.4-1 ms, 50-90 V, 250 ms apart) to an extracellular electrode (a patch electrode filled with the extracellular solution) positioned in the vicinity of the presynaptic neuron. Sweeps were recorded at 10 s intervals. After 20 sweeps, 100 μM 3,5-DBr-L-Phe was added. Neuron was held in whole-cell mode at Vh=−60 mV in Mg^2+ (1 mM) containing extracellular solution. […] The amplitude of the 1st and 2nd EPSCs were measured against the baseline; each point represents an average of five subsequent sweeps. Data expressed as mean±S.E.M. for 7 cells. *, P<0.01 compared to control.

AMPA-kainate receptors = experiment: AMPA-activated currents (IAMPA) in cerebrocortical cultured neurons; type: cell-based, rat; conditions: for effect on activity of postsynaptic AMPA-kainate receptors (AMPA/kainate receptor function): rat cerebrocortical cultured neurons
Procedure: as §1, §3
The miniature EPSCs were recorded in TTX-containing (0.3-1 μM), Mg^2+-free (in case of NMDA receptor recording) extracellular solution at Vh=−60 mV. In order to isolate the NMDA component of GluR-mediated EPSCs, the non-NMDAR (AMPA/kainate) antagonist NBQX (10-20 μM) was added to extracellular solutions. To isolate the non-NMDAR-mediated EPSCs, the experiments were performed in the presence of NMDAR channel blocker, MK-801 (5-10 μM), or in the presence of the NMDAR antagonist, AP-5 (20 μM). Strychnine (1 μM) and picrotoxin (20 μM) were added to the extracellular solution to block glycine and GABA receptors, respectively. […] The basic extracellular solution contained (in mM): NaCl 140, KCl 4, CaCl2 2, MgCl2 1,4-(2-hydroxyethyl)-1-piperazineethanesulfonic acid (HEPES) 10, and glucose 11. The pH of the extracellular solution was adjusted to 7.4 using NaOH. The main solution for filling the patch electrodes contained (in mM): Cs gluconate 135, NaCl 5, KCl 10, MgCl2 1, CaCl2 1, EGTA 11, HEPES 10, Na2ATP 2, Na2GTP […]. The pH of the intracellular solution was adjusted to 7.4 using CsOH. […]
C and D: 3,5-DBr-L-Phe depresses AMPA-activated currents (IAMPA) in rat cerebrocortical cultured neurons. Examples of AMPA-activated currents recorded from the same rat cortical neuron before application of 3,5-DBr-L-Phe, during exposure to different concentrations of BrPhe (noted in figure) and after washout of 3,5-DBr-L-Phe (C). […] Data expressed as mean±S.E.M. for 3-5 cells. *, P<0.01 compared to control.

NMDA receptor [2] = experiment: NMDA receptor-mediated currents, patch-clamp recording in cultured cerebrocortical neurons; type: cell-based, rat; conditions: for effect on NMDA receptor-mediated current: rat cerebrocortical neurons, TTX-containing, Mg2+-free extracellular solution, holding potential −60 mV, concentration-dependent
NMDA receptor [3] = conditions: see ref. 12 and 13; cited from earlier work

N[C@@H](Cc1cc(Br)cc(Br)c1)C(=O)O [3,5-DBr-L-Phe, 3,5-dibromo-L-phenylalanine]
effect on elicited action potentials [1]: does not significantly affect
effect on AMPA/kainate receptor-mediated mEPSCs (frequency and amplitude) (AMPA/kainate receptor): depresses
effect on GABA receptor-mediated mIPSCs (amplitude and frequency) (GABA receptor): does not significantly affect
effect on glutamate release (glutamate release): causes depression
effect on glutamate release (glutamate release; listed as 3,5-dibromo-L-Phe): significantly depresses
effect on AMPA-activated currents (IAMPA) (AMPA-kainate receptors; AMPA 3 μM, exposure started 45 s before AMPA, different concentrations): depresses
effect on activity of postsynaptic AMPA-kainate receptors (AMPA/kainate receptor function) (AMPA-kainate receptors): causes depression
effect on activity of postsynaptic AMPA-kainate receptors (AMPA/kainate receptor function) (AMPA-kainate receptors; listed as 3,5-dibromo-L-Phe): significantly depresses
sensitivity of 3,5-DBr-L-Phe-activated current to NMDA receptor specific antagonists (NMDA receptor [2]; 3,5-DBr-L-Phe 100 μM, AP-5 20 μM, 6 neurons): is blocked by NMDA receptor specific antagonists
dependence of activating effect on NMDA receptor-mediated current on NMDA concentration (NMDA receptor [2]; 3,5-DBr-L-Phe 100 μM, NMDA 3-1000 μM, glycine 0.1 μM and 10 μM): depends on concentration of NMDA in extracellular solution
dependence of activating effect on NMDA receptor-mediated current on glycine concentration (NMDA receptor [2]; 3,5-DBr-L-Phe 100 μM, different concentrations of glycine): does not depend on concentration of glycine
effect on NMDA receptor-mediated current (NMDA receptor [2]): activates
effect on NMDA receptor-mediated current (NMDA receptor [2]; listed as 3,5-dibromo-L-Phe): augment

N[C@@H](Cc1cccc(Br)c1)C(=O)O [3-bromo-L-Phe, 3-bromo-L-phenylalanine]
effect on glutamate release (glutamate release): significantly depresses
effect on activity of postsynaptic AMPA-kainate receptors (AMPA/kainate receptor function) (AMPA-kainate receptors): significantly depresses
effect on NMDA receptor-mediated current (NMDA receptor [2]): augment

NC(CCCP(=O)(O)O)C(=O)O (stereo not drawn) [AP-5, reference compound]
effect of antagonist on 3,5-DBr-L-Phe-activated current (NMDA receptor [2]; AP-5 20 μM, 3,5-DBr-L-Phe 100 μM): depression of 3,5-DBr-L-Phe-activated current

N[C@@H](Cc1ccccc1)C(=O)O [L-Phe, L-Phenylalanine]
effect on NMDA receptor activity (NMDA receptor [3]): opposite, depressant, effect
